Laboratory results published in ChEMBL document CHEMBL2434906, “Synthesis, characterization, and anticancer studies of S and N alkyl piperazine-substituted positional isomers of 1,2,4-triazole derivatives” (Med Chem Res, 2013).

Tests used:
Assay type in all cases: functional, cell-based
HL-60 = test: Cytotoxicity against human HL60 cells after 24 hrs by MTT assay; conditions: HL-60, 24 h
MCF7 = test: Cytotoxicity against human MCF7 cells after 24 hrs by MTT assay; conditions: MCF7, 24 h
COLO 205 = test: Cytotoxicity against human COLO205 cells after 24 hrs by MTT assay; conditions: COLO 205, 24 h
U-937 = test: Cytotoxicity against human U937 cells after 24 hrs by MTT assay; conditions: U-937, 24 h
THP-1 = test: Cytotoxicity against human THP1 cells after 24 hrs by MTT assay; conditions: THP-1, 24 h

SMILES | IC50 (HL-60) | IC50 (MCF7) | IC50 (COLO 205) | IC50 (U-937) | IC50 (THP-1)
CC(C)(C)c1ccc(-c2nn(CCCN3CCN(c4cccc(Cl)c4)CC3)c(=S)[nH]2)cc1 | > 300 µM | > 300 µM | > 300 µM | > 300 µM | > 300 µM
Cc1ccc(-c2nn(CCCN3CCN(c4cccc(Cl)c4)CC3)c(=S)[nH]2)cc1 | > 300 µM | > 300 µM | > 300 µM | > 300 µM | > 300 µM
COc1ccc(-c2nn(CCCN3CCOCC3)c(=S)[nH]2)cc1OC | > 300 µM | > 300 µM | > 300 µM | > 300 µM | > 300 µM
CCN1CCN(CCCn2nc(-c3ccc(OC)c(OC)c3)[nH]c2=S)CC1 | > 300 µM | > 300 µM | > 300 µM | > 300 µM | > 300 µM
CCN1CCN(CCCSc2nnc(-c3ccc(C)cc3)[nH]2)CC1 | > 300 µM | > 300 µM | > 300 µM | > 300 µM | > 300 µM
Clc1ccc(-c2nnc(SCCCN3CCN(c4cccc(Cl)c4)CC3)[nH]2)cc1 | > 300 µM | > 300 µM | > 300 µM | > 300 µM | > 300 µM
CCN1CCN(CCCSc2nnc(-c3ccccc3Cl)[nH]2)CC1 | > 300 µM | > 300 µM | > 300 µM | > 300 µM | > 300 µM
Clc1ccccc1-c1nnc(SCCCN2CCN(c3ccccn3)CC2)[nH]1 | > 300 µM | > 300 µM | > 300 µM | > 300 µM | > 300 µM
COc1ccc(-c2nn(CCCN3CCN(c4ccccn4)CC3)c(=S)[nH]2)cc1 | 115 µM | > 300 µM | > 300 µM | > 300 µM | > 300 µM
Fc1ccc(-c2nn(CCCN3CCN(Cc4ccccc4)CC3)c(=S)[nH]2)cc1 | > 300 µM | 128 µM | 111 µM | > 300 µM | 160 µM
S=c1[nH]c(-c2ccc(Cl)cc2)nn1CCCN1CCN(c2cccc(Cl)c2)CC1 | 6.67 µM | > 300 µM | > 300 µM | 28.2 µM | > 300 µM
CC(C)(C)c1ccc(-c2nn(CCCN3CCN(c4ccccc4)CC3)c(=S)[nH]2)cc1 | > 300 µM | > 300 µM | > 300 µM | 88.9 µM | 147 µM
c1ccc(Cc2nnc(SCCCN3CCN(c4ccccn4)CC3)[nH]2)cc1 | > 300 µM | > 300 µM | > 300 µM | 163 µM | > 300 µM
Clc1cccc(-c2nnc(SCCCN3CCN(c4ncccn4)CC3)[nH]2)c1 | 18.5 µM | > 300 µM | > 300 µM | 49.1 µM | > 300 µM
Cc1cccc(-c2nnc(SCCCN3CCN(c4ccccn4)CC3)[nH]2)c1 | 29.4 µM | > 300 µM | > 300 µM | 52.3 µM | > 300 µM
Cc1cccc(-c2nnc(SCCCN3CCN(c4ccccc4)CC3)[nH]2)c1 | > 300 µM | > 300 µM | > 300 µM | > 300 µM | 248 µM
Fc1ccc(-c2nnc(SCCCN3CCN(Cc4ccccc4)CC3)[nH]2)cc1 | > 300 µM | 184 µM | 181 µM | 124 µM | 255 µM
Clc1ccc(-c2nnc(SCCCN3CCN(c4ncccn4)CC3)[nH]2)cc1 | 105 µM | > 300 µM | > 300 µM | 102 µM | > 300 µM
Cc1ccc(-c2nnc(SCCCN3CCN(c4cccc(Cl)c4)CC3)[nH]2)cc1 | > 300 µM | > 300 µM | 139 µM | 257 µM | > 300 µM
CC(C)(C)c1ccc(-c2nnc(SCCCN3CCN(c4ccccc4)CC3)[nH]2)cc1 | > 300 µM | > 300 µM | > 300 µM | 49.3 µM | 97.6 µM
CC(C)(C)c1ccc(-c2nnc(SCCCN3CCOCC3)[nH]2)cc1 | > 300 µM | 287 µM | 155 µM | 156 µM | > 300 µM
COc1cc([C@@H]2c3cc4c(cc3[C@@H](O[C@@H]3O[C@@H]5CO[C@@H](C)O[C@H]5[C@H](O)[C@H]3O)[C@H]3COC(=O)[C@H]23)OCO4)cc(OC)c1O [ETOPOSIDE] | 1.84 µM | 29.5 µM |  | 10.4 µM | 
